Entries after “also recorded” stand apart in the source; their conditions may differ.

The values below come from patent US9879038B2, “Salt of tenofovir disoproxil” (JW Pharmaceutical Corporation, priority 2014, dated 2018).

Common to all, as to format: physicochemical
The nature of series [1]: Evaluation of stability depending on changes in pH. The following applies: deionized water and pH 1.2, 4.0, 6.8 buffers, 30° C., HPLC, FIGS. 2 and 3. How it is done:
When a drug is orally administered, it is absorbed in vivo through the stomach, duodenum, small intestine, etc. […] In the present invention, stability was measured using deionized water and three different pH buffer solutions (at pH 1.2, 4.0, and 6.8) for release testing. A test method was performed in a manner in which 5 mg of each of the tenofovir disoproxil hemi-edisylate of the present invention and the tenofovir disoproxil fumarate as a control group was accurately weighed, completely dissolved in 1 mL of a mixture of acetonitrile and water (1:19), and then added with 9 mL of each of the above pH buffer solutions. The individual samples thus prepared were placed in a chamber at 30° C. and changes in the amounts thereof over time were quantified using HPLC.

A short description of series [2]: Evaluation of stability (stressed conditions) depending on generation of related substances, HPLC (USP). Conditions: for related substance generated: FIG. 1c. How it is done: In order to evaluate stability (stressed conditions), according to the ICH guidelines, tenofovir disoproxil edisylate of the present invention (Example 1: TDE) and tenofovir disoproxil fumarate (Comparative Example 1: TDF) as a control group were used, and analyzed using high-perfoiinance liquid chromatography (HPLC) as set forth in the U.S. Pharmacopeia (USP). The results are shown in Table 1 below (stressed conditions: 60±2° C.).
The tenofovir disoproxil hemi-edisylate of the present invention (Example 1: TDE (hemi salt)), serving as a test group, and tenofovir disoproxil mono-edisylate (Comparative Example 2: TDE (mono salt)), serving as a control group, were evaluated for stability for 3 weeks in the same manner as in (1) above.

Series [3] can be described thus: Evaluation of saturation solubility. Also noted: saturation solubility: unit not given here. The following applies: for solubility: thermodynamic from solid. The method, then:
The saturation solubility of the tenofovir disoproxil hemi-edisylate of the present invention (Example 1) and the tenofovir disoproxil fumarate salt (Comparative Example 1) as a control group were evaluated.

Where [4] appears, read: stressed conditions 60±2° C., 7 days.
The mark [5] stands for this setting: stressed conditions 60±2° C., 14 days.
Setting [6] is: stressed conditions 60±2° C., 21 days.
The mark [7] stands for this setting: stressed conditions 60±2° C., Initial.

Regarding “9-[(R)-2-[[bis[[(isopropoxycarbonyl)oxy]methoxy]phosphinyl]methoxy]propyl]adenine hemiedisylate [TDE]”, the “stability depending on changes in pH” value in series [1] was “stability equal to that of a conventional tenofovir disoproxil fumarate product”. Further, the “stability under stressed conditions (in words)” value in series [2] (stressed conditions 60±2° C., 3 weeks, versus control salt, listed as tenofovir disoproxil hemi-edisylate) was “very stable under stressed conditions compared to the disoproxil fumarate; also recorded: very stable under stressed conditions compared to the tenofovir disoproxil mono-edisylate”. Further, the “Related substances: Tenofovir disoproxil ethyl ester” value in series [2] (setting [4]) worked out at 0.02%; in series [2] (setting [5]), 0.01%; in series [2] (setting [6]), 0.02%; in series [2] (setting [7]) it was 0.01%. In addition, the “Related substances: Tenofovir isopropyl isoproxil” value in series [2] (setting [4]), in series [2] (setting [5]), in series [2] (setting [6]) and in series [2] (setting [7]) was 0.04% throughout. The “Related substances: Tenofovir isoproxil monoester” value is 0.27% in series [2] (setting [4]), 0.30% in series [2] (setting [5]), 0.37% in series [2] (setting [6]) and 0.26% in series [2] (setting [7]). Moreover, the related substance generated in series [2] (stressed conditions, 3rd week) was 0.37. In series [2] (stressed conditions, 3rd week, related substance 0.37 vs 5.62), the “stability superior to that of tenofovir disoproxil mono-edisylate” value is recorded as “at least 15 times”. For the same compound, the saturation solubility in series [3] (DW (Deionized Water)) was 2200; in series [3] (pH 1.2), 2680; in series [3] (pH 4.0), 2280; in series [3] (pH 6.8), 2400.
For `CC(C)OC(=O)OCOP(=O)(CO[C@H](C)Cn1cnc2c(N)ncnc21)OCOC(=O)OC(C)C.O=C(O)/C=C/C(=O)O` [TDF, 9-[2-(R)-[[bis[[(isopropoxycarbonyl)oxy]methoxy]phosphinoyl]methoxy]propyl]adenine fumaric acid (1:1)], in series [2] (setting [4]), the “Related substances: Adenine” value was found to be 0.01%, the “Related substances: Tenofovir isoproxil monoester” value came to 0.79%, the “Related substances: Unspecified impurity-1” value was 0.01% and the “Related substances: Unspecified impurity-2” value turned out to be 0.09%. Also, in series [2] (setting [4]), the “Related substances: Unspecified impurity-3” value was determined as 0.03% and the “Related substances: Unspecified impurity-5” value is recorded as 0.21%. In series [2] (setting [5]), the “Related substances: Adenine” value was found to be 0.01%, the “Related substances: Tenofovir isoproxil monoester” value was 1.26%, the “Related substances: Unspecified impurity-1” value is listed as 0.05% and the “Related substances: Unspecified impurity-2” value amounted to 0.27%. In addition, in series [2] (setting [5]), the “Related substances: Unspecified impurity-3” value came out at 0.04%, the “Related substances: Unspecified impurity-4” value worked out at 0.04%, the “Related substances: Unspecified impurity-5” value was determined as 0.63% and the “Related substances: Unspecified impurity-6” value came to 0.07%. For the same compound, the “Related substances: Unspecified impurity-7” value in series [2] (setting [5]) was 0.42%. For the same compound, in series [2] (setting [6]), the “Related substances: Adenine” value was found to be 0.01%, the “Related substances: Tenofovir isoproxil monoester” value turned out to be 1.81%, the “Related substances: Unspecified impurity-2” value is listed as 0.18% and the “Related substances: Unspecified impurity-3” value amounted to 0.03%. Moreover, in series [2] (setting [6]), the “Related substances: Unspecified impurity-5” value was determined as 0.21%. Further, in series [2] (setting [7]), the “Related substances: Adenine” value stood at 0.01%, the “Related substances: Tenofovir isoproxil monoester” value is reported as 0.42%, the “Related substances: Unspecified impurity-2” value is listed as 0.03% and the “Related substances: Unspecified impurity-3” value was found to be 0.02%. Further, the “Related substances: Unspecified impurity-5” value in series [2] (setting [7]) was 0.05%. Also, the concentration in solution in series [3] (aqueous buffer, pH 4.0) (solubility) came to 13.2 mg/mL. Also, the solubility in series [3] (pH 1.2, simulated gastric fluid) was 39.2 mg/mL. The solubility in series [3] (pH 6.8, aqueous buffer) came out at 9.4 mg/mL. The amount in solution in series [3] (DW (Deionized Water)) (solubility) came to 13.5 mg/mL.
For `CC(C)OC(=O)OCOP(=O)(COC(C)Cn1cnc2c(N)ncnc21)OCOC(=O)OC(C)C.O=S(=O)(O)CCS(=O)(=O)O` (centres unmarked) [tenofovir disoproxil mono-edisylate, Tenofovir disoproxil mono-edisylate], in series [2] (stressed conditions, 3rd week), the related substance generated amounted to 5.62.
